Laboratory results taken from ChEMBL document CHEMBL6092218 (J Med Chem, 2024).
Each block holds one compound with its values, some of them ahead of it. Calls of active or inactive are those of the source. The rule behind the calls is not given here.

Key:
MIA PaCa-2 [1] = assay: Antiproliferative activity against human MIA PaCa-2 cells incubated for 6 days by CyQUANT cell proliferation assay; format: functional, cell-based; conditions: MIA PaCa-2, 144 h
[2] = Metabolic stability in human liver microsomes assessed as apparent intrinsic clearance at 1 uM measured upto 60 mins in presence of NADPH by LC-MS/MS analysis; format: ADME, Microsome; conditions: read-out: CLH
[3] = Apparent permeability of compound in dog RRCK cells measured after 1.5 hrs by LC-MS/MS analysis; conditions: MDCK
[4] = Clearance in mouse blood at 30 mg/kg, po measured upto 24 hrs by LC-MS/MS analysis; format: ADME, organism-based; conditions: whole blood
[5] = Volume of distribution at steady state in mouse at 30 mg/kg, po measured upto 24 hrs by LC-MS/MS analysis; format: ADME, organism-based; conditions: in vivo
[6] = Bioavailability in mouse at 30 mg/kg, po measured upto 24 hrs by LC-MS/MS analysis; format: ADME, organism-based; conditions: in vivo
[7] = Half-life in mouse at 30 mg/kg, po measured upto 24 hrs by LC-MS/MS analysis; format: ADME, organism-based; conditions: in vivo
Cytochrome P450 3A4 = Cytochrome P450 3A4 (Homo sapiens, UniProt P08684); assay: Inhibition of CYP3A4 in human liver microsomes using midazolam as substrate incubated for 4 mins by LC-MS/SM analysis
Chain of Cytochrome P450 3A4 (P08684 whole entry): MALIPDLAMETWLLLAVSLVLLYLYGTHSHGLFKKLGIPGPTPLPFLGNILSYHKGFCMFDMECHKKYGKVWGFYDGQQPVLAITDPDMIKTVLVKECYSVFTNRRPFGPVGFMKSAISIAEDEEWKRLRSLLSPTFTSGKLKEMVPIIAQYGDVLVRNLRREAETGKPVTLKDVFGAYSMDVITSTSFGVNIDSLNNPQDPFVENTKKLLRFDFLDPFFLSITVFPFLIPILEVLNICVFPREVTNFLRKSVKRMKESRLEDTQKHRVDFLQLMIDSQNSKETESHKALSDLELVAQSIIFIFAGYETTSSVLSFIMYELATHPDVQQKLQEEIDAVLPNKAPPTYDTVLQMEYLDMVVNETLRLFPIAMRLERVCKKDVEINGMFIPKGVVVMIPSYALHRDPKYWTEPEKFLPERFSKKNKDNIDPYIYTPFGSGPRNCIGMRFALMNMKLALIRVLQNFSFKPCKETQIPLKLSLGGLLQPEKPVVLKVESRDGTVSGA

MIA PaCa-2 [8] = assay: Antitumor activity against human MIA PaCa-2 cells xenografted in NSG mouse assessed as time duration of coverage of MIA PaCa-2 IC50 in plasma at 10 mg/kg, po bid; format: functional
MIA PaCa-2 [9] = assay: Antitumor activity against human MIA PaCa-2 cells xenografted in NSG mouse assessed as tumor growth inhibition at 10 mg/kg, po bid measured after 24 days by caliper method; format: functional; conditions: MIA PaCa-2, 576 h, time 24 day, read-out: TGI
MIA PaCa-2 [10] = assay: Antitumor activity against human MIA PaCa-2 cells xenografted in NSG mouse assessed as tumor stasis at 15 mg/kg, po BID measured after 24 days; format: functional, organism-based; conditions: time 24.0 day
MIA PaCa-2 [11] = assay: Antitumor activity against human MIA PaCa-2 cells xenografted in NSG mouse assessed as time duration of coverage of MIA PaCa-2 IC90 in plasma at 15 mg/kg, po qd; format: functional
MIA PaCa-2 [12] = assay: Antitumor activity against human MIA PaCa-2 cells xenografted in po dosed NSG mouse assessed as reduction in tumor volume measured after 24 days by caliper method; format: functional, organism-based; conditions: time 24.0 day
MIA PaCa-2 [13] = assay: Antitumor activity against human MIA PaCa-2 cells xenografted in NSG mouse assessed as time duration of coverage of MIA PaCa-2 IC90 in plasma at 10 mg/kg, po bid; format: functional
MIA PaCa-2 [14] = assay: Antitumor activity against human MIA PaCa-2 cells xenografted in NSG mouse assessed as tumor growth inhibition at 15 mg/kg, po qd measured after 24 days by caliper method; format: functional; conditions: MIA PaCa-2, 576 h, time 24 day, read-out: TGI
MIA PaCa-2 [15] = assay: Antitumor activity against human MIA PaCa-2 cells xenografted in NSG mouse assessed as time duration of coverage of MIA PaCa-2 IC50 in plasma at 15 mg/kg, po qd; format: functional
MIA PaCa-2 [16] = assay: Antitumor activity against human MIA PaCa-2 cells xenografted in NSG mouse assessed as tumor growth inhibition at 30 mg/kg, po qd measured after 24 days by caliper method; format: functional; conditions: MIA PaCa-2, 576 h, time 24 day, read-out: TGI
MIA PaCa-2 [17] = assay: Antitumor activity against human MIA PaCa-2 cells xenografted in NSG mouse assessed as time duration of coverage of MIA PaCa-2 IC50 in plasma at 15 mg/kg, po bid; format: functional
MIA PaCa-2 [18] = assay: Antitumor activity against human MIA PaCa-2 cells xenografted in NSG mouse assessed as time duration of coverage of MIA PaCa-2 IC50 in plasma at 30 mg/kg, po qd; format: functional
[19] = Toxicity in NSG mouse xenografted in with human MIA PaCa-2 cells assessed as body weight loss at 15 to 30 mg/kg, po qd […]; format: organism-based; conditions: in vivo, dose 15-30 mg/kg
[20] = Toxicity in NSG mouse xenografted in with human MIA PaCa-2 cells assessed as body weight loss at 10 to 15 mg/kg, po bid […]; format: organism-based; conditions: in vivo, dose 10-15 mg/kg
MIA PaCa-2 [21] = assay: Antitumor activity against human MIA PaCa-2 cells xenografted in NSG mouse assessed as time duration of coverage of MIA PaCa-2 IC90 in plasma at 15 mg/kg, po bid; format: functional
MIA PaCa-2 [22] = assay: Antitumor activity against human MIA PaCa-2 cells xenografted in NSG mouse assessed as tumor stasis at 30 mg/kg, po qd measured after 24 days; format: functional, organism-based; conditions: time 24.0 day
MIA PaCa-2 [23] = assay: Antitumor activity against human MIA PaCa-2 cells xenografted in NSG mouse assessed as time duration of coverage of MIA PaCa-2 IC90 in plasma at 30 mg/kg, po qd; format: functional
MIA PaCa-2 [24] = assay: Antitumor activity against human MIA PaCa-2 cells xenografted in NSG mouse assessed as tumor growth inhibition at 15 mg/kg, po bid measured after 24 days by caliper method; format: functional; conditions: MIA PaCa-2, 576 h, time 24 day, read-out: TGI

Structure (SMILES): CC[C@@](C)(N)c1ccnc(Nc2cc3cc(-c4cnnn4C)nc(N)c3cn2)c1
CL/F [4]: 49.4 mL/min/kg
IC50 (MIA PaCa-2 [1]): 6.5 nM
Vdss [5]: 2.8 L/kg
bioavailability [6]: 3%
microsomal CLint at 1 µM [2]: < 7 µL/min/mg
Papp at 1.5 h [3]: 6.4 ×10⁻⁶ cm/s
half-life [7]: 3.8 h

Structure (SMILES): Cc1cn(C)nc1Nc1cc2cc(-c3sncc3C)nc(N)c2cn1
microsomal CLint at 1 µM [2]: 189 µL/min/mg

Structure (SMILES): Cc1cn(C)nc1Nc1cc2cc(-c3cnnn3C)nc(N)c2cn1
microsomal CLint at 1 µM [2]: 15.3 µL/min/mg

Structure (SMILES): CCC(N)(CC)c1ccnc(Nc2cc3cc(-c4cnnn4C)nc(N)c3cn2)c1
T>IC50 (MIA PaCa-2 [8]): 21 h
inhibition in vivo at 10 mg/kg (MIA PaCa-2 [9]): 58%
Activity (MIA PaCa-2 [10]): Active
CL/F [4]: 109 mL/min/kg
T>IC90 (MIA PaCa-2 [11]): 9 h
Activity (MIA PaCa-2 [12]): Dose-dependent-effect
T>IC90 (MIA PaCa-2 [13]): 16 h
inhibition in vivo at 15 mg/kg (MIA PaCa-2 [14]): 35%
IC50 (MIA PaCa-2 [1]): 3 nM
T>IC50 (MIA PaCa-2 [15]): 15 h
inhibition in vivo at 30 mg/kg (MIA PaCa-2 [16]): 106%
T>IC50 (MIA PaCa-2 [17]): 24 h
T>IC50 (MIA PaCa-2 [18]): 24 h
Vdss [5]: 4.9 L/kg
Activity [19]: Non-toxic
Activity [20]: Non-toxic
T>IC90 (MIA PaCa-2 [21]): 19 h
Activity (MIA PaCa-2 [22]): Active
T>IC90 (MIA PaCa-2 [23]): 16 h
bioavailability [6]: 96%
microsomal CLint at 1 µM [2]: 41.1 µL/min/mg
Papp at 1.5 h [3]: 11.1 ×10⁻⁶ cm/s
half-life [7]: 12 h
inhibition in vivo at 15 mg/kg (MIA PaCa-2 [24]): 103%

Structure (SMILES): Cn1nncc1-c1cc2cc(Nc3cc(C(C)(C)N)ccn3)ncc2c(N)n1
microsomal CLint at 1 µM [2]: < 7 µL/min/mg
Papp at 1.5 h [3]: 1.7 ×10⁻⁶ cm/s

Structure (SMILES): Cn1nncc1-c1cc2cc(Nc3cc(C(C)(C)O)ccn3)ncc2c(N)n1
microsomal CLint at 1 µM [2]: < 7 µL/min/mg
Papp at 1.5 h [3]: 13.3 ×10⁻⁶ cm/s

Structure (SMILES): Cc1cn(C)nc1Nc1cc2cc(-c3cncn3C)nc(N)c2cn1
microsomal CLint at 1 µM [2]: 8.2 µL/min/mg

Other lines, results leading:

IC50 (MIA PaCa-2 [1]): 12.8 nM
microsomal CLint at 1 µM [2]: 19.4 µL/min/mg
Papp at 1.5 h [3]: 12.3 ×10⁻⁶ cm/s
Structure (SMILES): CCC(N)(CC)c1ccnc(Nc2cc3cc(N4CCOC4=O)nc(N)c3cn2)c1

IC50 (Cytochrome P450 3A4): 14500 nM
microsomal CLint at 1 µM [2]: 31.8 µL/min/mg
Papp at 1.5 h [3]: 10.8 ×10⁻⁶ cm/s
Structure (SMILES): Cc1cn(C)nc1Nc1cc2cc(-c3cn[nH]c3C)nc(N)c2cn1

microsomal CLint at 1 µM [2]: 76.8 µL/min/mg
Papp at 1.5 h [3]: 5.2 ×10⁻⁶ cm/s
Structure (SMILES): CCn1nc(Nc2cc3cc(-c4cnnn4C)nc(N)c3cn2)c2c1[C@@H]1CC[C@H]2C(=O)N1C1CCC1

CL/F [4]: 124 mL/min/kg
IC50 (MIA PaCa-2 [1]): 14.5 nM
Vdss [5]: 3.2 L/kg
bioavailability [6]: 7%
microsomal CLint at 1 µM [2]: < 7 µL/min/mg
Papp at 1.5 h [3]: 5.6 ×10⁻⁶ cm/s
half-life [7]: 0.6 h
Structure (SMILES): CC[C@](C)(N)c1ccnc(Nc2cc3cc(-c4cnnn4C)nc(N)c3cn2)c1

IC50 (Cytochrome P450 3A4): > 22400 nM
microsomal CLint at 1 µM [2]: 28.6 µL/min/mg
Papp at 1.5 h [3]: 44.4 ×10⁻⁶ cm/s
Structure (SMILES): Cc1cn(C)nc1Nc1cc2cc(C3CCc4nccn43)nc(N)c2cn1 (centres undefined)

microsomal CLint at 1 µM [2]: 21.2 µL/min/mg
Structure (SMILES): Cc1cn(C)nc1Nc1cc2cc(-c3cnccn3)nc(N)c2cn1

microsomal CLint at 1 µM [2]: 201 µL/min/mg
Papp at 1.5 h [3]: 5.2 ×10⁻⁶ cm/s
Structure (SMILES): Cn1nncc1-c1cc2cc(Nc3nn(C)c4c3[C@@H]3CC[C@H]4N(C4CCC4)C3)ncc2c(N)n1
